Activity calls are given as the source filed them. The rule behind the calls is not given here.
Experiments:
Thymidylate synthase [1] = biological target: T1, Thymidylate synthase (Homo sapiens, UniProt P04818); assay: Inhibition of human thymidylate synthase expressed in Escherichia coli incubated for 1 hr by spectrophotometry
Target sequence in this assay (P04818 whole entry): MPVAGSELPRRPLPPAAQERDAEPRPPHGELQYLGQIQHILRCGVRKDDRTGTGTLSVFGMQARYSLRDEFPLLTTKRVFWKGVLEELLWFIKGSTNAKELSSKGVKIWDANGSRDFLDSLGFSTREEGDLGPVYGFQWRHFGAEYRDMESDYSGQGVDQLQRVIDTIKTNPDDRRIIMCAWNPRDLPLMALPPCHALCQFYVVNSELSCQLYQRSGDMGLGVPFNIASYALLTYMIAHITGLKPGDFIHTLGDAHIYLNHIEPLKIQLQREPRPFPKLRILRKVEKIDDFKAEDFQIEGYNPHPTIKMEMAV

2008 [2] = assay: Growth inhibition of human 2008 cells by crystal violet assay; type: functional, cell-based
[3] = Growth inhibition of cDDP-resistant human C13 cells by crystal violet assay; type: functional, cell-based
Thymidylate synthase [4] = biological target: T1, Thymidylate synthase; assay: Inhibition of human thymidylate synthase expressed in Escherichia coli at 50 uM incubated for 1 hr by spectrophotometry
Target sequence in this assay (P04818 2-313 limits assumed): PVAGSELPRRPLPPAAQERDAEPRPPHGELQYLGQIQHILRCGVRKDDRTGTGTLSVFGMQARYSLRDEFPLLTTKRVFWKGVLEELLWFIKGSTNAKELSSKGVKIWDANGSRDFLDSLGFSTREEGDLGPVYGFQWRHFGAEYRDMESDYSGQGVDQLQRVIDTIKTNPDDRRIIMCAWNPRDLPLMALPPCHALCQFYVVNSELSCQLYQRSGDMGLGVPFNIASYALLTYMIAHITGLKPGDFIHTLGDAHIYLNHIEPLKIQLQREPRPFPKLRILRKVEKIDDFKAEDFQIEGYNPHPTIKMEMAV

A2780 = assay: Growth inhibition of human A2780 cells by crystal violet assay; type: functional, cell-based
[5] = Growth inhibition of cDDP-resistant human A2780/CP70 cells by crystal violet assay; type: functional, cell-based
2008 [6] = assay: Increase in ROS production in human 2008 cells at 20 uM incubated for 72 hrs by CM-H2DCFDA dye based fluorometry; type: functional
2008 [7] = assay: Increase in ROS production in human 2008 cells at 40 uM incubated for 72 hrs by CM-H2DCFDA dye based fluorometry; type: functional
2008 [8] = assay: Inhibition of DHFR protein expression in human 2008 cells at 40 uM incubated for 72 hrs by Western blotting; type: functional; settings: Homo sapiens, 2008, 72 h
2008 [9] = assay: Effect on thymidylate synthase protein expression in human 2008 cells at 20 to 40 uM incubated for 72 hrs by Western blotting; type: functional, cell-based
2008 [10] = assay: Inhibition of DHFR protein expression in human 2008 cells at 20 uM incubated for 72 hrs by Western blotting; type: functional; settings: Homo sapiens, 2008, 72 h
C13 [11] = assay: Inhibition of DHFR protein expression in cDDP-resistant human C13 cells at 20 uM incubated for 72 hrs by Western blotting; type: functional, cell-based
C13 [12] = assay: Increase in ROS production in cDDP-resistant human C13 cells at 40 uM incubated for 72 hrs by CM-H2DCFDA dye based fluorometry; type: functional, cell-based
Thymidylate synthase [13] = biological target: T1, Thymidylate synthase; assay: Inhibition of human thymidylate synthase expressed in Escherichia coli at 100 uM incubated for 1 hr by spectrophotometry
Target sequence in this assay (P04818 2-313 limits assumed): as above

C13 [14] = assay: Inhibition of DHFR protein expression in cDDP-resistant human C13 cells at 40 uM incubated for 72 hrs by Western blotting; type: functional, cell-based
Vero = assay: Growth inhibition of african green monkey Vero cells by crystal violet assay; type: cell-based; settings: Chlorocebus sabaeus
C13 [15] = assay: Effect on thymidylate synthase protein expression in cDDP-resistant human C13 cells at 20 to 40 uM incubated for 72 hrs by Western blotting; type: functional, cell-based
C13 [16] = assay: Increase in ROS production in cDDP-resistant human C13 cells at 20 uM incubated for 72 hrs by CM-H2DCFDA dye based fluorometry; type: functional, cell-based
Thymidylate synthase [17] = biological target: T1, Thymidylate synthase; assay: Inhibition of human thymidylate synthase expressed in Escherichia coli at 25 uM incubated for 1 hr by spectrophotometry
Target sequence in this assay (P04818 2-313 limits assumed): as above

Thymidylate synthase [18] = biological target: T1, Thymidylate synthase; assay: Inhibition of human thymidylate synthase expressed in Escherichia coli incubated for 1 hr assessed as reduction in mTHF Vmax value by spectrophotometry based Lineweaver-Burk method relative to untreated control
Target sequence in this assay (P04818 2-313 limits assumed): as above

Thymidylate synthase [19] = biological target: T1, Thymidylate synthase; assay: Inhibition of human thymidylate synthase expressed in Escherichia coli incubated for 1 hr using varying dUMP levels by spectrophotometry based Lineweaver-Burk method
Target sequence in this assay (P04818 whole entry): as the sequence (P04818 whole entry) above

Thymidylate synthase [20] = biological target: T1, Thymidylate synthase; assay: Mixed inhibition of human thymidylate synthase expressed in Escherichia coli incubated for 1 hr using varying mTHF and dUMP levels by spectrophotometry based Lineweaver-Burk method
Target sequence in this assay (P04818 2-313 limits assumed): as the sequence (P04818 2-313 limits assumed) above

For COc1ccc(C)cc1NC(=O)C(=O)N/N=C/c1ccc(OCC(N)=O)cc1, the IC50 (Thymidylate synthase [1]) was 112 µM, the IC50 2008 [2] was over 60 µM and the IC50 [3] was over 60 µM. The inhibition (Thymidylate synthase [4]) was 35%.

With O=C(NC(=O)c1cn(CCNCCO)c(=O)[nH]c1=O)OCc1ccccc1 the IC50 (A2780) was 6.6 µM, the IC50 [5] was 16.5 µM and the “fold change (FC)” value 2008 [6] was 1.5. The “fold change (FC)” value 2008 [7] was 1.5, the inhibition at 40 µM 2008 [8] was 60% and the Activity 2008 [9] was “inactive”. For the same molecule, the IC50 (Thymidylate synthase [1]) was 619 µM, the IC50 2008 [2] was 24.1 µM and the inhibition at 20 µM 2008 [10] was 40%. For the same molecule, the inhibition (C13 [11]) was “inactive”, the Activity (C13 [12]) was “inactive” and the IC50 [3] was 56.8 µM. The inhibition (Thymidylate synthase [13]) was 36%, the inhibition (C13 [14]) was “inactive” and the IC50 (Vero) was over 80 µM. The Activity (C13 [15]) was “inactive” and the Activity (C13 [16]) was “inactive”.

For CCCCCn1c(=O)c(C(=O)Nc2ccc(N)cc2)c(O)c2ccccc21, the IC50 (A2780) was 4.9 µM, the IC50 [5] was 12.3 µM and the IC50 (Thymidylate synthase [1]) was 71 µM. For the same molecule, the IC50 2008 [2] was 8.8 µM, the IC50 [3] was 9.2 µM and the IC50 (Vero) was 10.2 µM. It also gave an inhibition (Thymidylate synthase [17]) of 41%.

For CCN(CC)CCOC(=O)c1ccc(NS(=O)(=O)c2ccc(C(C)(C)C)cc2)cc1, the IC50 2008 [2] was over 60 µM, the IC50 [3] was over 60 µM and the inhibition (Thymidylate synthase [13]) was 15%.

O=C(CC1S/C(=N\N=C\c2ccccc2O)N=C1O)Nc1cccc(C(F)(F)F)c1 (configuration not stated) gave an IC50 (A2780) of 19.4 µM, an IC50 [5] of 36.4 µM and an IC50 (Thymidylate synthase [1]) of 90 µM. For the same molecule, the IC50 2008 [2] was 21.1 µM, the inhibition (Thymidylate synthase [18]) was 60% and the IC50 [3] was 28.3 µM. The Ki (Thymidylate synthase [19]) was 2.5 µM, the inhibition (Thymidylate synthase [20]) was “Active” and the IC50 (Vero) was 30.3 µM. It also gave an inhibition (Thymidylate synthase [17]) of 33%.

Molecule O=c1[nH]cc(F)c(=O)[nH]1 [FLUOROURACIL] has an IC50 (A2780) of 5.1 µM, an IC50 [5] of 12.3 µM and an IC50 2008 [2] of 4.2 µM. For the same molecule, the IC50 [3] was 8.5 µM and the IC50 (Vero) was 4.5 µM.

Cc1ccc(C(=O)C2=C(O)C(=O)N(CCN(C)C)C2c2ccc(OCC(N)=O)cc2)o1 (configuration not stated) gave an IC50 (A2780) of 16.4 µM, an IC50 [5] of 39.5 µM and an IC50 2008 [2] of 37.4 µM. The IC50 [3] was over 80 µM, the inhibition (Thymidylate synthase [13]) was 16% and the IC50 (Vero) was over 80 µM.

— ChEMBL document CHEMBL2177012, “Inhibitor of ovarian cancer cells growth by virtual screening: a new thiazole derivative targeting human thymidylate synthase” (J Med Chem, 2012)
